Consider 11 compounds from publication PMC7178819, “6,7-Dimethoxy-2-phenethyl-1,2,3,4-tetrahydroisoquinoline amides and corresponding ester isosteres as multidrug resistance reversers” (Journal of Enzyme Inhibition and Medicinal Chemistry, 2020).

One data set has as its target T1, BCRP (Homo sapiens, UniProt Q9UNQ0).
T1 construct: expressed in transfected cells; host or cells: MDCK-BCRP (Madin-Darby Canine Kidney cells, gift of Prof. P. Borst, NKI-AVL)
T1 sequence (Q9UNQ0 1-655): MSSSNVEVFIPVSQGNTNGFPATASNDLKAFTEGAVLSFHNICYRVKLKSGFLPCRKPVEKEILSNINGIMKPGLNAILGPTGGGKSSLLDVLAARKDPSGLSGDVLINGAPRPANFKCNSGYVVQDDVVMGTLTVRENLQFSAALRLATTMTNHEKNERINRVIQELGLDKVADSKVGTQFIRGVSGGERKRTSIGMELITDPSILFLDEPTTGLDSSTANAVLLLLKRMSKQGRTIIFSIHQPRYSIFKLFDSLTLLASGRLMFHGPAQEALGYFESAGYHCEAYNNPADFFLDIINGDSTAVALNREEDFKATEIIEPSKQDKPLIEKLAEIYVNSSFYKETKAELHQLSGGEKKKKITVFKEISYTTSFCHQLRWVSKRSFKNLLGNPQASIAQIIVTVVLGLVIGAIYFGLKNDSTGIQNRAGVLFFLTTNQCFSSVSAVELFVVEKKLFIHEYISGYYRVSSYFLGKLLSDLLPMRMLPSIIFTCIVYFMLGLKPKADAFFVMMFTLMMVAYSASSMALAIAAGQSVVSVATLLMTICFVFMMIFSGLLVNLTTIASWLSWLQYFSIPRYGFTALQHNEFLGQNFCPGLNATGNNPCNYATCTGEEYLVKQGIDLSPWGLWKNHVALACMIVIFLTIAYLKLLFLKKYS
Put plainly: Inhibition of Hoechst 33342 efflux in MDCK-BCRP cells. It counts as cell-based. The following applies: for EC50: Hoechst 33342, MDCK-BCRP cells, NA: not active; for BCRP, percentage of the effect: at a concentration of 100 μM, MDCK-BCRP cells. The procedure:
These experiments were carried out as described by Teodori et al.[34]. Each cell line (30 000 cells per well) was seeded into black CulturePlate 96/wells plate with 100 µL medium and allowed to become confluent overnight. 100 µL of test compounds were solubilised in culture medium and added to monolayers, with final concentrations ranging from 1 to 100 µM. 96/Wells plate was incubated for 30 min in a humidified atmosphere 5% CO2 at 37 °C. Hoechst 33342 was added in 100 µl of phosphate-buffered saline (PBS) to yield a final concentration of 8 µM and plate was incubated for 30 min in a humidified atmosphere 5% CO2 at 37 °C. The supernatants were drained, and the cells were fixed for 20 min under light protection using 100 µL per well of a 4% PFA solution. Each well was washed three times with ice cold PBS. Saline buffer was added to each well and the plate was read with Victor3 (PerkinElmer) at excitation and emission wavelengths of 340/35 nm and 485/20 nm, respectively. In these experimental conditions, Hoechst 33342 accumulation in the absence and in the presence of tested compounds was evaluated and fluorescence basal level was estimated with untreated cells. In treated wells, the increase of fluorescence with respect to basal level was measured. EC50 values were determined by fitting the fluorescence increase percentage versus log[dose]. […]

In a further data set the target is T2, P-gp (Homo sapiens, UniProt P08183).
T2 construct: expressed in transfected cells; host or cells: MDCK-MDR1 (Madin-Darby Canine Kidney cells, gift of Prof. P. Borst, NKI-AVL)
T2 sequence (P08183 whole entry): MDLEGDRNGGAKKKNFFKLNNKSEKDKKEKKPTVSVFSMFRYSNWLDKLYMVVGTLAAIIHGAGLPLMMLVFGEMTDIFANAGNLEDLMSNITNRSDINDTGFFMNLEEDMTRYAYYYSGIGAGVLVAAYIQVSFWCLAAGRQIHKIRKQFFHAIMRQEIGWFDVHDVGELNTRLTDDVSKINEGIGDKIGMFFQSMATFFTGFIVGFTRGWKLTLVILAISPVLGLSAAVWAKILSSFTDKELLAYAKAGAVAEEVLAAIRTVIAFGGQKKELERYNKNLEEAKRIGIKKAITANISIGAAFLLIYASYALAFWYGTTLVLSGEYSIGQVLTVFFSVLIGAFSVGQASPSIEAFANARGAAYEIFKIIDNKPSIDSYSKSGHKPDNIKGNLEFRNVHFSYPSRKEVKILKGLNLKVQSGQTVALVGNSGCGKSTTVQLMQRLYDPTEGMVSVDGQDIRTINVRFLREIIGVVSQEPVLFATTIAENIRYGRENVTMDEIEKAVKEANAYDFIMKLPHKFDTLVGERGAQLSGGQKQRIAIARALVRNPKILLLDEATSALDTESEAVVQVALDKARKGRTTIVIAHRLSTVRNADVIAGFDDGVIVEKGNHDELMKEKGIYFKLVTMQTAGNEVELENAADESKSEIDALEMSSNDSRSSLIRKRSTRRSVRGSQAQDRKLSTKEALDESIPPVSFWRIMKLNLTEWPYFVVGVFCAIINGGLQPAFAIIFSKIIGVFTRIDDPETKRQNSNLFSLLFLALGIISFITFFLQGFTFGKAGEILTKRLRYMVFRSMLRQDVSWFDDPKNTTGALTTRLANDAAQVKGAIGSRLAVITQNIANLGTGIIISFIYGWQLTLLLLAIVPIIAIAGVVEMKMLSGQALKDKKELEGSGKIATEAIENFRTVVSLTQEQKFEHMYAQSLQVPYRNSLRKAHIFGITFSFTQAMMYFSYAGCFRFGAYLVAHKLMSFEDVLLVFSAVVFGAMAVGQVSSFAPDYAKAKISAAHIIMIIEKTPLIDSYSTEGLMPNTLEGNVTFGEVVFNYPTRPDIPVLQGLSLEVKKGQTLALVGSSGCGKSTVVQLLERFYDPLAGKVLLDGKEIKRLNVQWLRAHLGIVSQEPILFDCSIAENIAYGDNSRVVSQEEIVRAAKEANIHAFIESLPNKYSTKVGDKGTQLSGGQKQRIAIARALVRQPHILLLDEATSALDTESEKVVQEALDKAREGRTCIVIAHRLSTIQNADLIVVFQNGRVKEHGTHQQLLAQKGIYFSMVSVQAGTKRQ
As to the kind of experiment: ATP cell depletion (ATPlite assay) in MDCK-MDR1 cells. It counts as cell-based. As to conditions: Yes/No. In a few lines:
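MDCK-MDR1 cells seeded at 20,000 per well and grown overnight were treated 2 h at 37 °C, 5% CO2 with compounds at 1 to 100 µM. After cell lysis and substrate addition, luminescence was measured following ten minutes of dark adaptation as the readout of cellular ATP.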
In general terms: In ATP-based viability assays light output follows the ATP content of the culture.

Data set [1] is described as follows: Stability test in human plasma (LC-MS/MS). Format: in vitro ADME. The following applies: human, human plasma, 1 µM, 37 °C. Here is the method:
Each sample was prepared adding 10 µL of working solution 1 to 100 µL of tested matrix (PBS or human plasma) in micro centrifuge tubes. The obtained solutions correspond to 1 µM of analyte.
After the incubation, the samples were added with 300 µL of ISTD solution and centrifuged (room temperature for 5 min at 10,000 rpm). The supernatants were transferred in auto sampler vials and dried under a gentle stream of nitrogen.
The dried samples were dissolved in 1.0 ml of 10 mM of formic acid in mQ water: acetonitrile 80:20 solution. The obtained sample solutions were analysed by LC-MS/MS methods described in Supplementary material.
For this purpose, a series of experiments were carried out, adding a known amount of analyte in both phosphate buffer solution (PBS) and in human plasma. The samples were analysed by LC-MS/MS method operating in Multiple Reaction Monitoring (MRM) mode[55].
The analyte concentration (1 µM) used during the stability tests is generally smaller than the corresponding Michaelis–Menten constant (KM); therefore, the enzymatic degradation rate is described by a first-order kinetic. Then, by plotting the natural logarithm of the quantitative data versus the incubation time, a linear function can be used and its slope represents the degradation rate (k).

The EC50 is the midpoint of the concentration-response curve. By half-life is commonly meant the time in which the quantity being followed falls by half. Lower therefore signals rapid decline.

SMILES strings stand for the structures. Marks after values point to notes of the source that are not given here.

In turn, `COc1ccc(C(=O)Oc2ccc(CCN3CCc4cc(OC)c(OC)cc4C3)cc2)c(OC)c1` [Compound 16, 4–(2-(6,7-Dimethoxy-3,4-dihydroisoquinolin-2(1H)-yl)ethyl)phenyl 2,4-dimethoxybenzoate] registered an EC50 on BCRP of 11 ± 2 µM. Besides, the ATP cell depletion entry at P-gp is on record as “No”. In addition, the half-life at 1 µM in data set [1] turned out to be 1.47 ± 0.367 h.

For `COc1cc2c(cc1OC)CN(CCc1ccc(NC(=O)c3ccc(OC)c(OC)c3OC)cc1)CC2` [Compound 1, N-(4–(2-(6,7-dimethoxy-3,4-dihydroisoquinolin-2(1H)-yl)ethyl)phenyl)-2,3,4-trimethoxybenzamide], the concentration giving a half-maximal response (EC50) at BCRP stood at 21.2 ± 4.2 µM. Moreover, the ATP cell depletion entry on P-gp is “No”. The half-life at 1 µM in data set [1] was not below 4 h.

At BCRP, `COc1cc2c(cc1OC)CN(CCc1ccc(OC(=O)c3c(OC)ccc4ccccc34)cc1)CC2` [Compound 20, 4–(2-(6,7-Dimethoxy-3,4-dihydroisoquinolin-2(1H)-yl)ethyl)phenyl 2-methoxy-1-naphthoate] registered an EC50 of 7.3 ± 1.4 µM. The ATP cell depletion entry on P-gp is recorded as “No”. Further, in data set [1], the half-life at 1 µM is not below 4 h.

As to `COc1cc2c(cc1OC)CN(CCc1ccc(OC(=O)c3cccc(OC)c3OC)cc1)CC2` [Compound 18, 4–(2-(6,7-Dimethoxy-3,4-dihydroisoquinolin-2(1H)-yl)ethyl)phenyl 2,3-dimethoxybenzoate], the “BCRP, percentage of the effect” value on BCRP turned out to be 44%^d. In addition, on P-gp, the ATP cell depletion entry is on record as “No”. The same compound came in with a half-life at 1 µM in data set [1] of 0.9 ± 0.15 h.

With `COc1ccc(C(=O)Nc2ccc(CCN3CCc4cc(OC)c(OC)cc4C3)cc2)c(OC)c1` [Compound 3, N-(4–(2-(6,7-dimethoxy-3,4-dihydroisoquinolin-2(1H)-yl)ethyl)phenyl)-2,4-dimethoxybenzamide], the EC50 at BCRP amounted to 1 ± 0.2 µM. On P-gp, the ATP cell depletion entry is “No”. Besides, in data set [1], the half-life at 1 µM is not below 4 h.

As to `COc1cc2c(cc1OC)CN(CCc1ccc(OC(=O)c3cccc4ccccc34)cc1)CC2` [Compound 19, 4–(2-(6,7-Dimethoxy-3,4-dihydroisoquinolin-2(1H)-yl)ethyl)phenyl 1-naphthoate], the “BCRP, percentage of the effect” value at BCRP was 35%^d. The ATP cell depletion result on P-gp is given as “No”. The half-life at 1 µM in data set [1] was not below 4 h.

For `COc1cc2c(cc1OC)CN(CCc1ccc(OC(=O)c3c(OC)c(OC)cc4ccccc34)cc1)CC2` [Compound 21, 4–(2-(6,7-Dimethoxy-3,4-dihydroisoquinolin-2(1H)-yl)ethyl)phenyl 2,3-dimethoxy-1-naphthoate], the “BCRP, percentage of the effect” value on BCRP is reported as 43%^d. The ATP cell depletion entry on P-gp is “No”. For the same compound, the half-life at 1 µM in data set [1] was not below 4 h.

For `COc1cc2c(cc1OC)CN(CCc1ccc(OC(=O)c3ccccc3OC)cc1)CC2` [Compound 15, 4–(2-(6,7-Dimethoxy-3,4-dihydroisoquinolin-2(1H)-yl)ethyl)phenyl 2-methoxybenzoate], on BCRP, the “BCRP, percentage of the effect” value is recorded as 47%^d. Besides, on P-gp, the ATP cell depletion result was “No”. The compound further returned a half-life at 1 µM in data set [1] of 1.05 ± 0.233 h.

`COc1cc2c(cc1OC)CN(CCc1ccc(OC(=O)c3ccc(OC)c(OC)c3OC)cc1)CC2` [Compound 14, 4–(2-(6,7-Dimethoxy-3,4-dihydroisoquinolin-2(1H)-yl)ethyl)phenyl 2,3,4-trimethoxybenzoate] displayed a concentration for a half-maximal effect (EC50) at BCRP of 15.1 ± 2.89 µM. In addition, the ATP cell depletion entry at P-gp was “No”. In addition, in data set [1], the half-life at 1 µM was not below 4 h.

`COc1cc2c(cc1OC)CN(CCc1ccc(NC(=O)c3cccc(OC)c3OC)cc1)CC2` [Compound 5, N-(4–(2-(6,7-dimethoxy-3,4-dihydroisoquinolin-2(1H)-yl)ethyl)phenyl)-2,3-dimethoxybenzamide]: the “BCRP, percentage of the effect” value at BCRP came out at 41%^d. Besides, the ATP cell depletion result on P-gp is given as “No”. The half-life at 1 µM in data set [1] was not below 4 h.

Consider `COc1cc2c(cc1OC)CN(CCc1ccc(NC(=O)c3c(OC)c(OC)cc4ccccc34)cc1)CC2` [Compound 8, N-(4–(2-(6,7-dimethoxy-3,4-dihydroisoquinolin-2(1H)-yl)ethyl)phenyl)-2,3-dimethoxy-1-naphthamide], for which, on P-gp, the ATP cell depletion entry is on record as “No”. Moreover, the half-life at 1 µM in data set [1] was not below 4 h.
